Results on 21 compounds are retold here after patent publication US8088763B2 (priority 2004, dated 2012).

One test concerns the target NA-uptake (Rattus norvegicus, UniProt Q63380). In words: biochemical. As to conditions: for inhibition at 10 µM: read-out: NA-uptake [10 μM], % inhibition.
In another test the target is T1, 5HT-uptake (Rattus norvegicus, UniProt P31652).
T1 construct: synaptosomes were freshly isolated from areas of rats' brains
In words: biochemical. The conditions noted are these: for inhibition at 10 µM: read-out: 5HT-uptake [10 μM], % inhibition.

T1 sequence (P31652 whole entry): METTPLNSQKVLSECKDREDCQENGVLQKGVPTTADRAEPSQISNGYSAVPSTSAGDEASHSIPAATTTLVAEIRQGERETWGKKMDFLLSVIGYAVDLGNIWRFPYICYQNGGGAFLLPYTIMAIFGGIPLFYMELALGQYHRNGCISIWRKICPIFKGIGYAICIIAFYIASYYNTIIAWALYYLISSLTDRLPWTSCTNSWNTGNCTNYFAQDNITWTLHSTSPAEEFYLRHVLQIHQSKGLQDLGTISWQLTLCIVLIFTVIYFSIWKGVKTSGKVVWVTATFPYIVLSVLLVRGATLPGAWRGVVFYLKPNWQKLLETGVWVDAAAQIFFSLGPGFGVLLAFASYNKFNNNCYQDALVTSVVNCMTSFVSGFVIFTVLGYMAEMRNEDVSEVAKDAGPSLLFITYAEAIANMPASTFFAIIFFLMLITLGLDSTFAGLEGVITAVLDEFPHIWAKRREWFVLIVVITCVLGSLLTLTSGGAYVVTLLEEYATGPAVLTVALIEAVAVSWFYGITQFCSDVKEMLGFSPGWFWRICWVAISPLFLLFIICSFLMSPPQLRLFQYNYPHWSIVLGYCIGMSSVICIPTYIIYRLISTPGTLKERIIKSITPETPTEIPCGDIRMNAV
Chain of NA-uptake (Q63380 1-617): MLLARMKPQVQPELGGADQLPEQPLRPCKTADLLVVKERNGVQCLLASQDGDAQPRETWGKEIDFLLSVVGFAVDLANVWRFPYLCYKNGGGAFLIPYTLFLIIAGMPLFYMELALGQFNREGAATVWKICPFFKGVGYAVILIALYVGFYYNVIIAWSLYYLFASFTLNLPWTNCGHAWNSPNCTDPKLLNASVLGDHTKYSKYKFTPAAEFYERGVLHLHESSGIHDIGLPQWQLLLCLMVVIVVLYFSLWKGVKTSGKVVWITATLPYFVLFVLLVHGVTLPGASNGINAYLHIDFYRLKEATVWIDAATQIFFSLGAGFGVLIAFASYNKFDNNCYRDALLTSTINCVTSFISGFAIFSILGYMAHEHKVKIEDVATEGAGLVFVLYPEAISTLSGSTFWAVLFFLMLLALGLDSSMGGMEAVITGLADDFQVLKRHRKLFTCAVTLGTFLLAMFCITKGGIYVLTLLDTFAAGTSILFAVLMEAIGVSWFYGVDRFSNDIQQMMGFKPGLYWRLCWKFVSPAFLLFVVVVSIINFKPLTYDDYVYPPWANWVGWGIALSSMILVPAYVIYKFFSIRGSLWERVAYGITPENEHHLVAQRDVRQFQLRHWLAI

Turning to `Cc1cccc(N2CCN(C(=O)CCCC(=O)NC3CCC(Cc4ccccc4)(N(C)C)CC3)CC2)c1C` (stereo not drawn) [Example 56, 5-[4-(2,3-dimethyl-phenyl)-piperazin-1-yl]-5-oxo-valeric acid (4-benzyl-4-dimethylamino-cyclohexyl)-amide], the inhibition at 10 µM on NA-uptake was 96%; at 5HT-uptake it was 95%.

For the compound `COC(=O)C(Cc1ccc(Cl)cc1)NC(=O)CCC(=O)NC1CCC(Cc2ccc(C)cc2)(N(C)C)CC1` (stereo not drawn) [Example 32, 3-(4-chloro-phenyl)-2-{3-[4-dimethylamino-4-(4-methyl-benzyl)-cyclohexylcarbamoyl]-propionylamino}-propanoic acid methylester], the inhibition at 10 µM on NA-uptake was found to be 97%; on 5HT-uptake, 99%.

With `CCOc1ccccc1CNC(=O)CCC(=O)NC1CCC(Cc2ccc(C)cc2)(N(C)C)CC1` (stereo not drawn) [Example 138, N-[4-dimethylamino-4-(4-methyl-benzyl)-cyclohexyl]-N′-(2-ethoxy-benzyl)-succinamide], the values for the inhibition at 10 µM at NA-uptake and at 5HT-uptake were 84% and 92%, respectively.

For the compound `CN(C)C1(Cc2ccc(Cl)cc2)CCC(NC(=O)CCC(=O)NCCC(c2ccccc2)c2ccccc2)CC1` (stereo not drawn) [Example 3, N-[4-(4-chloro-benzyl)-4-dimethylamino-cyclohexyl]-N′-(3,3-diphenyl-propyl)-succinamide], the inhibition at 10 µM amounted to 89% on NA-uptake and 94% on 5HT-uptake.

On to `Cc1ccc(CC2(N(C)C)CCC(NC(=O)CCC(=O)N(C)CCc3ccccn3)CC2)cc1` (stereo not drawn) [Example 38, N-[4-dimethylamino-4-(4-methyl-benzyl)-cyclohexyl]-N′-methyl-N′-(2-pyridin-2-yl-ethyl)-succinamide], for which the inhibition at 10 µM at NA-uptake was found to be 79%; at 5HT-uptake, 95%.

`COc1cc(CN2CCN(C(=O)CCCC(=O)NC3CCC(Cc4ccccc4)(N(C)C)CC3)CC2)cc2c1OCO2` (stereo not drawn) [Example 54]: the “NA-uptake [10 μM], % inhibition” value on NA-uptake was determined as 90%. Moreover, at 5HT-uptake, the “5HT-uptake [10 μM], % inhibition” value came out at 95%.

`Cc1ccc(CC2(N(C)C)CCC(NC(=O)CCC(=O)N3CCN(c4cccc(C)c4C)CC3)CC2)cc1` (stereo not drawn) [Example 58, N-[4-dimethylamino-4-(4-methyl-benzyl)-cyclohexyl]-4-[4-(2,3-dimethyl-phenyl)-piperazin-1-yl]-4-oxo-butyramide]: the inhibition at 10 µM at NA-uptake is 79%; on 5HT-uptake it was 93%.

Regarding `COc1ccc(CCN(C)C(=O)CCC(=O)NC2CCC(Cc3cccc(C)c3)(N(C)C)CC2)cc1OC` (stereo not drawn) [Example 71, N-[2-(3,4-dimethoxy-phenyl)-ethyl]-N′-[4-dimethylamino-4-(3-methyl-benzyl)-cyclohexyl]-N-methyl-succinamide], the inhibition at 10 µM on NA-uptake was found to be 94%; on 5HT-uptake it was 92%.

As for `CN(C)C1(Cc2ccc(Cl)cc2)CCC(NC(=O)CCC(=O)NCc2cccc(Br)c2)CC1` (stereo not drawn) [Example 165, N-(3-bromo-benzyl)-N′-[4-(4-chloro-benzyl)-4-dimethylamino-cyclohexyl]-succinamide], the figures for the inhibition at 10 µM on NA-uptake and at 5HT-uptake were 94% and 92%, respectively.

For the compound `CN(C)C1(Cc2ccc(Cl)cc2)CCC(NC(=O)CCC(=O)NCCc2c[nH]c3ccccc23)CC1` (stereo not drawn) [Example 52, N-[4-(4-chloro-benzyl)-4-dimethylamino-cyclohexyl]-N′-[2-(1H-indol-3-yl)-ethyl]-succinamide], the inhibition at 10 µM on NA-uptake stood at 88%; at 5HT-uptake, 96%.

On to `CN(Cc1cccnc1)C(=O)CCC(=O)NC1CCC(Cc2cccc(Cl)c2)(N(C)C)CC1` (stereo not drawn) [Example 137, N-[4-(3-chloro-benzyl)-4-dimethylamino-cyclohexyl]-N′-methyl-N′-pyridin-3-ylmethyl-succinamide], for which the results for the inhibition at 10 µM at NA-uptake and at 5HT-uptake were 83% and 94%, respectively.

In the case of `Cc1ccc(CC2(N(C)C)CCC(NC(=O)CCC(=O)N3CC=C(c4ccccc4)CC3)CC2)cc1` (stereo not drawn) [Example 87, N-[4-dimethylamino-4-(4-methyl-benzyl)-cyclohexyl]-4-oxo-4-(4-phenyl-3,6-dihydro-2H-pyridin-1-yl)-butyramide], the inhibition at 10 µM at NA-uptake was found to be 94%; at 5HT-uptake it was 96%.

For `COc1ccc(CNC(=O)CCC(=O)NC2CCC(Cc3ccc(Cl)cc3)(N(C)C)CC2)c(OC)c1` (stereo not drawn) [Example 68, N-[4-(4-chloro-benzyl)-4-dimethylamino-cyclohexyl]-N′-(2,4-dimethoxy-benzyl)-succinamide], the results for the inhibition at 10 µM at NA-uptake and on 5HT-uptake were 85% and 98%, respectively.

On to `CN(C)C1(Cc2cccc(Cl)c2)CCC(NC(=O)CCC(=O)N2CC=CCC2)CC1` (stereo not drawn) [Example 39, N-[4-(3-chloro-benzyl)-4-dimethylamino-cyclohexyl]-4-(3,6-dihydro-2H-pyridin-1-yl)-4-oxo-butyramide], for which the values for the inhibition at 10 µM at NA-uptake and on 5HT-uptake were 90% and 94%, respectively.

For `Cc1ccc(CC2(N(C)C)CCC(NC(=O)CCC(=O)N(C)CCNC(=O)C(F)(F)F)CC2)cc1` (stereo not drawn) [Example 11, N-[4-dimethylamino-4-(4-methyl-benzyl)-cyclohexyl]-N′-methyl-N′-[2-(2,2,2-trifluoro-acetylamino)-ethyl]-succinamide], the inhibition at 10 µM amounted to 77% at NA-uptake and 92% on 5HT-uptake.

`CN(C)C1(Cc2cccc(Cl)c2)CCC(NC(=O)CCC(=O)N2CCc3[nH]c4ccc(F)cc4c3C2)CC1` (stereo not drawn) [Example 8, N-[4-(3-chloro-benzyl)-4-dimethylamino-cyclohexyl]-4-(8-fluoro-1,3,4,5-tetrahydro-pyrido[4,3-b]indol-2-yl)-4-oxo-butyramide]: the results for the inhibition at 10 µM on NA-uptake and on 5HT-uptake were 85% and 92%, respectively.

For `Cc1ccc(CC2(N(C)C)CCC(NC(=O)CCC(=O)N(C)CCc3c[nH]c4ccccc34)CC2)cc1` (stereo not drawn) [Example 36, N-[4-dimethylamino-4-(4-methyl-benzyl)-cyclohexyl]-N′-[2-(1H-indol-3-yl)-ethyl]-N′-methyl-succinamide], the inhibition at 10 µM on NA-uptake was 93%; at 5HT-uptake, 96%.

For the compound `COc1ccc2[nH]cc(CCNC(=O)CCC(=O)NC3CCC(Cc4cccc(C)c4)(N(C)C)CC3)c2c1` (stereo not drawn) [Example 139, N-[4-dimethylamino-4-(3-methyl-benzyl)-cyclohexyl]-N′-(2-(5-methoxy-1H-indol-3-yl)-ethyl]-succinamide], the inhibition at 10 µM at NA-uptake was 95%; on 5HT-uptake, 93%.

Take `COc1cccc(N2CCN(C(=O)CCCC(=O)NC3CCC(Cc4ccccc4)(N(C)C)CC3)CC2)c1` (stereo not drawn) [Example 91, 5-[4-(3-methoxy-phenyl)-piperazin-1-yl]-5-oxo-valeric acid (4-benzyl-4-dimethylamino-cyclohexyl)-amide]: the inhibition at 10 µM at NA-uptake was 101%; at 5HT-uptake it was 92%.

In the case of `CN(CC(=O)OC(C)(C)C)C(=O)CCCC(=O)NC1CCC(Cc2ccccc2)(N(C)C)CC1` (stereo not drawn) [Example 24, {[4-(4-benzyl-4-dimethylamino-cyclohexylcarbamoyl)-butyryl]-methyl-amino}-acetic acid tert butyl ester], the values for the inhibition at 10 µM at NA-uptake and at 5HT-uptake were 91% and 92%, respectively.

For the compound `COc1cccc(N2CCN(C(=O)CCC(=O)NC3CCC(Cc4cccc(C)c4)(N(C)C)CC3)CC2)c1` (stereo not drawn) [Example 48, N-[4-dimethylamino-4-(3-methyl-benzyl)-cyclohexyl]-4-[4-(3-methoxy-phenyl)-piperazin-1-yl]-4-oxo-butyramide], the inhibition at 10 µM on NA-uptake was 97%; on 5HT-uptake, 94%.

Broadly, the inhibition is the relative decrease from the control value, in per cent.
